Experimental data published in patent US20130123285A1, “Compositions and Methods for Targeting A3G:RNA Complexes” (UNIVERSITY OF ROCHESTER, priority 2010, published 2013).

How the values were obtained:
[1] = target: T1, HMM A3G (A3G:RNA complexes assembled in cells) (Homo sapiens, UniProt Q9HC16); test: In vitro deaminase activity of HMM isolated from TZM-bl-A3G cells; format: biochemical; settings: 20 μM
T1 construct: expressed in transfected cells; host or cells: TZM-bl cells stably transfected with A3G cDNA (TZM-bl-A3G); The HMM fraction was isolated from cell extracts by size exclusion chromatography
T1 sequence (Q9HC16 whole entry, one chain of several): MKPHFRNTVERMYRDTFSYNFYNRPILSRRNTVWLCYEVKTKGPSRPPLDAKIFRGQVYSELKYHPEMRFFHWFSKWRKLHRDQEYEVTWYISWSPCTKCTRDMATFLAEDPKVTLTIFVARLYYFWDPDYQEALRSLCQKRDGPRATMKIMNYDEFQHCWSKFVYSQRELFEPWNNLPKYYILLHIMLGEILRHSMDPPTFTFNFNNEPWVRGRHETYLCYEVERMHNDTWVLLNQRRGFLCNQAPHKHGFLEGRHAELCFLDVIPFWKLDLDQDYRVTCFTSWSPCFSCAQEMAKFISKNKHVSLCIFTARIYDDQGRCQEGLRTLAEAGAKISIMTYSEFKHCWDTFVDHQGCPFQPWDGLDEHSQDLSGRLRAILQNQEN
Method: Experiments were performed to directly test whether the compounds could activate antiviral activity from HMM in living cells. For this a cell line that expressed A3G as HMM was created. TZM-bl reporter cells were transfected with A3G cDNA and a cell line with stable expression of A3G was selected (TZM-bl-A3G). To verify HMM A3G, cell extracts were prepared from TZM-bl-A3G cells and fractionated by size exclusion chromatography. […] Isolated HMM had low levels of in vitro deaminase activity (4% dC to dU) that could be activated 10-fold by RNase digestion (FIG. 12, top panel). Treatment of HMM with 20 μM Clonidine and Altanserin activated A3G deaminase activity 6- and 8-fold respectively compared to untreated HMM (FIG. 12, bottom panel).

A3G = target: T2, A3G (Homo sapiens, UniProt Q9HC16); test: In vitro DNA deaminase activity of purified A3G; format: biochemical; settings: purified A3G treated at varying concentrations
T2 construct: polyhistidine (C); made in house; host or cells: Baculovirus-infected Sf9 insect cells
T2 sequence (Q9HC16 whole entry): as the sequence (Q9HC16 whole entry, one chain of several) above

A3G:RNA complexes = target: T3, A3G:RNA complexes (Homo sapiens, UniProt Q9HC16); test: EMSA of A3G:RNA complexes assembled on radiolabeled RNA (disaggregation of HMM); format: binding; settings: range of concentrations
T3 construct: polyhistidine (C); made in house; host or cells: Baculovirus-infected Sf9 insect cells
T3 sequence (Q9HC16 whole entry, one chain of several): as above
Method: The Electrophoretic Gel Mobility Shift Assay (EMSA) provides a visual and quantitative measure of the efficiency of A3G-RNA complex formation. EMSA was used initially to determine the optimum buffer conditions, molar ratio of A3G to RNA as well as the temperature and the duration of the complex assembly reaction.
The four compounds depicted in FIG. 7 were evaluated for their ability to disaggregate A3G:RNA complexes by treating A3G:RNA complexes assembled on radiolabeled RNA with each chemistry over a range of concentrations and then evaluated for size reduction of HMM by EMSA.

[2] = tested on: pseudotyped HIV in TZM-bl cells; test: Single round infectivity of pseudotyped HIV in wild type TZM-bl cells; format: cell-based; settings: viruses +/- Vif
Source text: (§1) Viral particles were harvested from media of producer cells, normalized based on p24 content and equal number of virus particles were used to infect wild type TZM-bl or TZM-bl-A3G cells. […] However, HIV replication and, consequently Tat expression, are anticipated to be inhibited if dissolution of HMM by A3G activators was able to stimulate host defense.

[3] = tested on: pseudotyped HIV in TZM-bl-A3G cells; test: microbe, parasite or virus in culture; format: cell-based
Source text: as §1

APOBEC3G (hA3G) = APOBEC3G (hA3G) (Homo sapiens, UniProt Q9HC16 Q9HC16:1-384); test: EMSA; Kd stated for optimal AU-rich RNA with G or C every fourth nucleotide; 99 nt RNA selected for the assay; settings: tags: C-terminal polyhistidine tag
APOBEC3G (hA3G), sequence (Q9HC16 whole entry, one chain of several): as above
Method: Experiments were performed to determine what length and sequence of nonspecific RNA would yield the most efficient formation of A3G:RNA complexes. A3G was expressed using the Baculovirus system and purified by nickel affinity chromatography. RNAs varying in GC and AU content were synthesized chemically or transcribed in vitro in lengths varying from 10 to 99 nucleotides (nt). A3G:RNA complexes were assembled in vitro with these RNAs over a range of A3G concentrations and the yield of small and large complexes determined by electrophoretic mobility shift on native gels (EMSA). […] A 99 nt RNA was selected for the HTS assay. The RNA used for the following data had the sequence: […]

With `Clc1cccc(Cl)c1N=C1NCCN1` [Clonidine] the “activation of A3G deaminase activity compared to untreated HMM” value [1] was 6 fold, the “inhibition of A3G deaminase activity” value (A3G) was “none of the hits inhibited A3G deaminase activity” and the “dissolution of A3G:RNA aggregates (HMM) by EMSA” value (A3G:RNA complexes) was “dose-dependent dissolution of A3G:RNA aggregates to faster migrating lower molecular mass (LMM) complexes”. For the same molecule, the “antiviral activity in TZM-bl cells” value [2] was “not in TZM-bl cells”.

`O=C(c1ccc(F)cc1)C1CCN(CCn2c(=S)[nH]c3ccccc3c2=O)CC1` [Altanserin] was tested, and the “activation of A3G deaminase activity compared to untreated HMM” value [1] was 8 fold, the “inhibition of A3G deaminase activity” value (A3G) was “none of the hits inhibited A3G deaminase activity” and the inhibition at 20 µM ([3]; Human immunodeficiency virus 1, read-out: inhibition of viral infectivity) was greater than 40%. For the same molecule, the “antiviral activity in TZM-bl-A3G cells” value ([3]; viruses +/- Vif) was “induced antiviral activity in TZM-bl-A3G cells”, the “dissolution of A3G:RNA aggregates (HMM) by EMSA” value (A3G:RNA complexes) was “completely dissociate RNA from a portion of the A3G complexes” and the “antiviral activity in TZM-bl cells” value [2] was “not in TZM-bl cells”.

B1: 99 nt nonspecific AU-rich RNA (ssRNA)
RNA: GGGAACAAAAGCUGGGUACCGGGCCCCCCCUCGAGGUCGAUGCAGACAUAUAUGAUACAAUUUGAUCAGUAUAUUAAAGAUAGUUAUGAUUUACAAGCU
B1 showed a Kd (APOBEC3G (hA3G)) of 30 nM.
